According to article PMC3050433, “The effects of maribavir on the autophosphorylation of ganciclovir resistant mutants of the cytomegalovirus UL97 protein” (Herpesviridae, 2010):
Substitutions are numbered along the chain they refer to.

Experiments:
Assay type in all cases: biochemical
UL97 A594T = biological target: T1, UL97 A594T (Human cytomegalovirus, UniProt Q68101, A594T); test: UL97 autophosphorylation protein kinase assay, A594T
T1 construct: PCR reaction to generate the full length UL97; honey bee melittin secretion signal (N); made in house; host or cells: Sf21 insect cells, recombinant baculovirus (pMelBac C)
T1 sequence (Q68101 1-707 A594T): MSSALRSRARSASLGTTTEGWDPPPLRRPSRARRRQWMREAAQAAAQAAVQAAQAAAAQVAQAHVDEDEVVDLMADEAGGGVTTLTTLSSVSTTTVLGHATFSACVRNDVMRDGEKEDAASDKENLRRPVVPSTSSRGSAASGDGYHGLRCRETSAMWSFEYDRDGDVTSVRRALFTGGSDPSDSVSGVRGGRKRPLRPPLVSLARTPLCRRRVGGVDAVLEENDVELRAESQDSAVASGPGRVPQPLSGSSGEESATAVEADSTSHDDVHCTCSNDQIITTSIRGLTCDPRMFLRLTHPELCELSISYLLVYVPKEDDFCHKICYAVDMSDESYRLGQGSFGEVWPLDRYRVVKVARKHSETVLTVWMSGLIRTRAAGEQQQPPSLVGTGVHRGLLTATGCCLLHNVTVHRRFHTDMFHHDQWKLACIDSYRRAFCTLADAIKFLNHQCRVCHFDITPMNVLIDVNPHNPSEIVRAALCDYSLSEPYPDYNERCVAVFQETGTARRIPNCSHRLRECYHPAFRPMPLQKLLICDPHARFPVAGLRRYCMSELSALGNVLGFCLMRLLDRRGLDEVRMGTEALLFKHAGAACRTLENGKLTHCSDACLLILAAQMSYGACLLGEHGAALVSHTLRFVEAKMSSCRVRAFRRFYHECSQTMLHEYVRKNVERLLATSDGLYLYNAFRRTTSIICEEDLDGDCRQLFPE
Method: (§1) Analysis of the autophosphorylation of wild type and mutant UL97 protein species was performed by a standard protein kinase assay as previously described (46). Briefly, purified protein was added to 2× protein kinase buffer (100 mM Tris HCl, pH9.0, 20 mM MgCl2, 10 μM ATP, 4 mM DTT, 2 M NaCl) and 370 KBq [γ^32P] ATP (Amersham), made up to 20 μl with SDW and incubated at 37°C. The reactions were terminated by the addition of 2× SDS sample buffer followed by boiling for 3 minutes. The amount of radiolabelled phosphate incorporated by autophosphorylation was analysed by SDS-PAGE and measured using the Biorad Mulitanalyst. The protein kinase assays were initially performed for 2 to 60 minutes to determine the maximum rate of phosphate incorporation, all assays were then performed at the maximum rate which equated to 5 minutes.
(§2) Enzyme kinetic analysis was performed on the purified wild type and mutant UL97 protein species as above using increasing concentrations of ATP (2 μM to 20 μM). The amount of incorporated radiolabelled phosphate was plotted against the concentration of ATP in a Lineweaver Burke plot to determine the Km for ATP for each UL97 species. […]

wild type UL97 = biological target: T2, wild type UL97 (Human cytomegalovirus, UniProt Q68101); test: UL97 autophosphorylation protein kinase assay, wild type
T2 construct: PCR reaction to generate the full length UL97; honey bee melittin secretion signal (N); made in house; host or cells: Sf21 insect cells, recombinant baculovirus (pMelBac C)
T2 sequence (Q68101 whole entry): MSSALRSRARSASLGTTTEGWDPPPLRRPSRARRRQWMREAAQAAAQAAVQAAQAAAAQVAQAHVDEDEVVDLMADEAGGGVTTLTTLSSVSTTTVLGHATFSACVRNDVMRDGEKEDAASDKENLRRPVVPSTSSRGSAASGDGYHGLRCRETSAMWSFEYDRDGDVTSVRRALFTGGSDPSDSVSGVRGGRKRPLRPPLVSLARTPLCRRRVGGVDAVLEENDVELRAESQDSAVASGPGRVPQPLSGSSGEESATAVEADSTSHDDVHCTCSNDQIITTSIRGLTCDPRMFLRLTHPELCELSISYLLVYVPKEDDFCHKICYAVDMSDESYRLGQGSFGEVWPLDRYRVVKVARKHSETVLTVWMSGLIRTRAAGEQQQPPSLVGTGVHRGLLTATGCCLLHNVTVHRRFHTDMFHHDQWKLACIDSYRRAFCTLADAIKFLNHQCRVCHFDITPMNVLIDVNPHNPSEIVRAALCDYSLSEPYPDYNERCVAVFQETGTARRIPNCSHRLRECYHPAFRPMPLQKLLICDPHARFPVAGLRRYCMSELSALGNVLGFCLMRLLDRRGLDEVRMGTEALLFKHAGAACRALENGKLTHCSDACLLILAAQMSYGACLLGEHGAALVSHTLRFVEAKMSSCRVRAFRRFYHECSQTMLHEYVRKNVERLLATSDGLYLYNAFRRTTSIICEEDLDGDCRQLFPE
Method: as §1
Enzyme kinetic analysis was performed on the purified wild type and mutant UL97 protein species as above using increasing concentrations of ATP (2 μM to 20 μM). The amount of incorporated radiolabelled phosphate was plotted against the concentration of ATP in a Lineweaver Burke plot to determine the Km for ATP for each UL97 species. The effect of maribavir upon the rate of radiolabelled phosphate incorporation by wild type or mutant UL97 was determined by protein kinase assays at a fixed concentration of maribavir (0.5 μM) as above, or with increasing concentrations of maribavir (0.01 μM to 5.0 μM) to determine the IC50 of maribavir for each UL97 species. In order to determine the nature of the inhibition mediated by maribavir, plots of 1/v vs 1/ATP with increasing concentrations of maribavir were constructed. Competitive inhibition was evident if the family of lines cconverged on the y-axis at 1/Vmax. The change in slope caused by the addition of maribavir was used to calculate the Ki using standard enzyme kinetic equations viz.

UL97 M460I = biological target: T3, UL97 M460I (Human cytomegalovirus, UniProt Q68101, M460I); test: UL97 autophosphorylation protein kinase assay, M460I
T3 construct: PCR reaction to generate the full length UL97; honey bee melittin secretion signal (N); made in house; host or cells: Sf21 insect cells, recombinant baculovirus (pMelBac C)
T3 sequence (Q68101 1-707 M460I): T1 sequence (Q68101 1-707 A594T) with M460I, T594A
Method: as §1, §2

SMILES	Km (UL97 A594T; A594T, read-out: Km for ATP) [µM]	Km (wild type UL97; wild type UL97, ATP 2 μM to 20 μM, 5 minutes) [µM]	Km (UL97 M460I; M460I, read-out: Km for ATP) [µM]	IC50 (UL97 A594T; A594T mutant) [nM]	% autophosphorylation Plus Maribavir (wild type UL97; maribavir 0.5 μM, normalised relative to wild type, mean and SD of triplicate) [%]	nature of the inhibition (wild type UL97; wild type UL97, 1/v vs 1/ATP with increasing maribavir)	Ki (wild type UL97; wild type UL97, competitive with ATP (2 μM to 20 μM), Lineweaver Burke plot) [nM]	IC50 (wild type UL97; wild type UL97, increasing concentrations of maribavir) [nM]	IC50 (UL97 M460I; M460I mutant) [nM]
Nc1ncnc2c1ncn2[C@@H]1O[C@H](COP(=O)(O)OP(=O)(O)OP(=O)(O)O)[C@@H](O)[C@H]1O [ATP]	40 ± 4.2	27 ± 2.2	28 ± 2	–	–	–	–	–	–
CC(C)Nc1nc2cc(Cl)c(Cl)cc2n1[C@H]1O[C@@H](CO)[C@H](O)[C@@H]1O [maribavir, 5,6-dichloro-2-(isopropylamino)-1-beta-L-ribofuranosyl-1H-benzimidazole]	–	–	–	31	4.5 ± 2.0	competitive inhibitor of ATP	10	34	4.8
